US6737383B1, “Herbicidal oxadiazolidines” (priority 1999, dated 2004)

Experiments:
itchgrass = experiment: Test D itchgrass; assay type: in vivo, Rottboellia exaltata; settings: Preemergence, 0 to 100 scale
Method in brief: (§1)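 Scoring used a 0–100 visual injury scale, with 0 meaning no effect and 100 complete control, assessed 14–21 days after application alongside untreated pots. Preemergence treatments went onto sandy loam surfaces of separately potted seeds within a day of sowing.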

common groundsel = experiment: Test D common groundsel; assay type: in vivo, Senecio vulgaris; settings: Preemergence, 0 to 100 scale
Method in brief: as §1

goosegrass = experiment: Test D goosegrass; assay type: in vivo, Eleusine indica; settings: Preemergence, 0 to 100 scale
Method in brief: as §1

purple nutsedge = experiment: Test D purple nutsedge; assay type: in vivo, Cyperus rotundus; settings: Preemergence, 0 to 100 scale
Method in brief: as §1

large crabgrass = experiment: Test D large crabgrass; assay type: in vivo, Digitaria sanguinalis; settings: Preemergence, 0 to 100 scale
Method in brief: as §1

Spanishneedles = experiment: Test D Spanishneedles; assay type: in vivo, Bidens bipinnata; settings: Preemergence, 0 to 100 scale
Method in brief: as §1

sandbur = experiment: Test D sandbur; assay type: in vivo, Cenchrus echinatus; settings: Preemergence, 0 to 100 scale
Method in brief: as §1

common ragweed = experiment: Test D common ragweed; assay type: in vivo, Ambrosia elatior; settings: Preemergence, 0 to 100 scale
Method in brief: as §1

Green foxtail [1] = experiment: Test D green foxtail; assay type: in vivo
Method in brief: as §1

dallisgrass = experiment: Test D dallisgrass; assay type: in vivo, Paspalum dilatatum; settings: Preemergence, 0 to 100 scale
Method in brief: as §1

Green foxtail [2] = experiment: Test D green foxtail; assay type: in vivo; settings: Preemergence, 0 to 100 scale
Method in brief: as §1

chickweed = experiment: Test E chickweed; assay type: in vivo, Stellaria media; settings: Preemergence
Alexandergrass = experiment: Test D Alexandergrass; assay type: in vivo, Brachiaria plantaginea; settings: Preemergence, 0 to 100 scale
Method in brief: as §1

Johnson grass = experiment: Test D Johnson grass; assay type: in vivo, Sorghum halepense; settings: Preemergence, 0 to 100 scale
Method in brief: as §1

surinam grass = experiment: Test D surinam grass; assay type: in vivo, Brachiaria decumbens; settings: Preemergence, 0 to 100 scale
Method in brief: as §1

[3] = Rate 16 g/ha, 0 no injury, 100 complete control
[4] = Rate 32 g/ha, 0 no injury, 100 complete control
[5] = Rate 64 g/ha, 0 no injury, 100 complete control
[6] = Rate 125 g/ha, 0 no injury, 100 complete control
[7] = Rate 64 g/ha, Preemergence; 0 to 100 scale, 0 no injury, 100 complete control
[8] = Rate 125 g/ha, Preemergence; 0 to 100 scale, 0 no injury, 100 complete control

CC(C)N(C(=O)n1oc(=O)n(C(C)C)c1=O)c1ccc(F)cc1 [Compound 131]
98: Plant response rating, Goosegrass (goosegrass; [4]) | Plant response rating, Alexandergrass (Alexandergrass; [5]) | Plant response rating Johnsongrass (Johnson grass; Rate 250 g/ha)
30: Plant response rating, Itchgrass (itchgrass; [3]) | Plant response rating, C. ragweed (common ragweed; [5]) | Plant response rating, C. ragweed (common ragweed; [6])
75: Plant response rating, Com. groundsel (common groundsel; [3]) | Plant response rating, Com. groundsel (common groundsel; [4]) | Plant response rating, Goosegrass (goosegrass; [3]) | Plant response rating, Surinam grass (surinam grass; [4])
100: Plant response rating, Itchgrass (itchgrass; Rate 250 g/ha) | Plant response rating, Itchgrass (itchgrass; Rate 500 g/ha) | Plant response rating, Com. groundsel (common groundsel; [6]) | Plant response rating, Com. groundsel (common groundsel; Rate 250 g/ha) | Plant response rating, Com. groundsel (common groundsel; Rate 500 g/ha) | Plant response rating, Goosegrass (goosegrass; [5]) | Plant response rating, Goosegrass (goosegrass; [6]) | Plant response rating, Goosegrass (goosegrass; Rate 250 g/ha) | Plant response rating, Goosegrass (goosegrass; Rate 500 g/ha) | Plant response rating Large crabgrass (large crabgrass; [3]) | Plant response rating Large crabgrass (large crabgrass; [4]) | Plant response rating Large crabgrass (large crabgrass; [5]) | Plant response rating Large crabgrass (large crabgrass; [6]) | Plant response rating Large crabgrass (large crabgrass; Rate 250 g/ha) | Plant response rating Large crabgrass (large crabgrass; Rate 500 g/ha) | Sandbur plant response rating (sandbur; [6]) | Plant response rating, Sandbur (sandbur; Rate 250 g/ha) | Plant response rating, Sandbur (sandbur; Rate 500 g/ha) | Plant response rating, C. ragweed (common ragweed; Rate 250 g/ha) | Plant response rating, C. ragweed (common ragweed; Rate 500 g/ha) | Plant response rating, Green foxtail (Green foxtail [1]; Preemergence; Rate 32 g/ha; 0 to 100 scale, 0 no injury, 100 complete control) | Green foxtail plant response rating (Green foxtail [1]; [7]) | Plant response rating, Green foxtail (Green foxtail [1]; [7]) | Green foxtail plant response rating (Green foxtail [1]; [8]) | Plant response rating, Green foxtail (Green foxtail [1]; [8]) | Plant response rating, Green foxtail (Green foxtail [1]; Rate 250 g/ha; Preemergence; 0 to 100 scale) | Plant response rating, Green foxtail (Green foxtail [1]; Rate 500 g/ha, Preemergence; 0 to 100 scale) | Plant response rating, Dallisgrass (dallisgrass; [5]) | Plant response rating, Dallisgrass (dallisgrass; [6]) | Plant response rating, Dallisgrass (dallisgrass; Rate 250 g/ha) | Plant response rating, Dallisgrass (dallisgrass; Rate 500 g/ha) | Plant response rating, Green foxtail (Green foxtail [2]; Rate 250 g/ha) | Plant response rating, Green foxtail (Green foxtail [2]; Rate 500 g/ha) | Plant response rating, Chickweed (chickweed; Rate 125 g/ha, 0 to 100 scale (0 no effect, 100 complete control)) | Chickweed plant response rating (0 to 100 scale) (chickweed; Rate 250 g/ha) | Plant response rating, Chickweed (chickweed; Rate 500 g/ha, 0 to 100 scale where 0 is no effect and 100 is complete control) | Plant response rating, Alexandergrass (Alexandergrass; [6]) | Plant response rating, Alexandergrass (Alexandergrass; Rate 250 g/ha) | Plant response rating, Alexandergrass (Alexandergrass; Rate 500 g/ha) | Plant response rating Johnsongrass (Johnson grass; Rate 500 g/ha) | Surinam grass plant response rating (surinam grass; [6]) | Plant response rating, Surinam grass (surinam grass; Rate 250 g/ha) | Plant response rating, Surinam grass (surinam grass; Rate 500 g/ha)
60: Purple nutsedge plant response rating (purple nutsedge; [6]) | Spanishneedles plant response rating (Spanishneedles; [6]) | Plant response rating, Sandbur (sandbur; [4])
0: Plant response rating, Purple nutsedge (purple nutsedge; [3]) | Plant response rating, Purple nutsedge (purple nutsedge; [4]) | Plant response rating, Spanishneedles (Spanishneedles; [3]) | Plant response rating, Spanishneedles (Spanishneedles; [4]) | Plant response rating, Sandbur (sandbur; [3]) | Plant response rating, C. ragweed (common ragweed; [3]) | Plant response rating, C. ragweed (common ragweed; [4])
40: Purple nutsedge plant response rating (purple nutsedge; [5]) | Spanishneedles plant response rating (Spanishneedles; [5]) | Plant response rating Johnsongrass (Johnson grass; [4])
65: Plant response rating Johnsongrass (Johnson grass; [5])
20: Plant response rating, Alexandergrass (Alexandergrass; [3]) | Plant response rating, Surinam grass (surinam grass; [3])
95: Plant response rating, Dallisgrass (dallisgrass; [4])
85: Plant response rating, Com. groundsel (common groundsel; [5]) | Plant response rating, Purple nutsedge (purple nutsedge; Rate 250 g/ha) | Plant response rating, Purple nutsedge (purple nutsedge; Rate 500 g/ha) | Sandbur plant response rating (sandbur; [5]) | Plant response rating, Dallisgrass (dallisgrass; [3]) | Surinam grass plant response rating (surinam grass; [5])
50: Plant response rating, Itchgrass (itchgrass; [4])
10: Plant response rating Johnsongrass (Johnson grass; [3])
90: Plant response rating, Itchgrass (itchgrass; [5]) | Plant response rating, Itchgrass (itchgrass; [6]) | Plant response rating, Spanishneedles (Spanishneedles; Rate 500 g/ha) | Plant response rating, Green foxtail (Green foxtail [1]; Preemergence; Rate 16 g/ha; 0 to 100 scale, 0 no injury, 100 complete control) | Plant response rating, Green foxtail (Green foxtail [1]; Rate 16 g/ha; Preemergence; 0 to 100 scale, 0 no injury, 100 complete control) | Plant response rating, Alexandergrass (Alexandergrass; [4]) | Plant response rating Johnsongrass (Johnson grass; [6])
